Data from the METLIN SMRT retention time set (Domingo-Almenara et al. 2019).

Experiment: gradient 5% acetonitrile 3 min, to 50% in 2 min, to 85% in 15 min, held 3 min, 100 µL/min
Conditions: column: Zorbax Extend-C18 2.1 x 50 mm; eluents: water / acetonitrile, 0.1% formic acid
How it was run: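 Retention times of pure standards were taken from adduct peaks that were selected by computer and manually inspected. Over 3 months, mixtures of ~100 molecules were run by HPLC–quadrupole time-of-flight mass spectrometry in positive and negative ionization mode. The Zorbax Extend-C18 column (2.1 × 50 mm, 1.8 μm) ran at 100 μL/min in water and acetonitrile, each containing 0.1% formic acid, with 40 μL dead volume and 900 μL dwell volume.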

Compound	RP-LC retention time
O=C1CN(S(=O)(=O)c2ccc([N+](=O)[O-])cc2)c2ccccc2N1	738 s
COC(=O)C1=CN(c2cccc(OC)c2)c2cc(F)ccc2S1(=O)=O	857 s
CCCC(=O)n1nc(C)c(S(=O)(=O)N2CCOCC2)c1C	954 s
Cc1cc(C)nc(N2CCN(c3c4c(nc5c(-c6ccccc6)c(C)nn35)CCC4)CC2)n1	1210 s
CCCN1CCC[C@@H](c2cccc(O)c2)C1	596 s
O=C(CSc1ncnc2c(-c3ccccc3)c[nH]c12)Nc1ccc2c(c1)OCO2	824 s
CC(=O)N1CCC2(CC1)OC(=O)C(C)=C2C(=O)N1CCc2ccccc2C1	692 s
Cc1cc(C(=O)NCc2ccc(C)o2)c2cc(Br)ccc2n1	801 s
Cc1nn(Cc2ccc(C(=O)NCC3CC3)cc2)c(C)c1S(=O)(=O)N1CCCCC1	859 s
COCC(=O)N1CCCCC1c1nncn1Cc1ccccc1 (centres undefined)	612 s
CCCNC(=O)C1CCN(Cc2cn(C)c3ccc(Cl)cc23)CC1	650 s
Cc1c(-c2noc(-c3ccc4c(c3)OCO4)n2)nnn1Cc1cccc(F)c1	990 s
COc1ccc(C2(C(=O)N3CC(c4noc(COc5ccc(F)cc5)n4)C3)CC2)cc1	974 s
CCOc1ccc(C(C)NC(=O)c2nnc(-c3ccc(S(=O)(=O)N(C)C)cc3)o2)cc1 (centres undefined)	923 s
CC1(C(=O)NC2CCCCC2)CN(S(=O)(=O)c2ccccc2)CC(=O)N1c1ccc(F)cc1 (centres undefined)	959 s
CN(C)C(=O)c1csc(S(=O)(=O)N2CCC(C(=O)NCc3ccc(Cl)cc3)CC2)c1	787 s
CC(C)NC(=O)c1ccc(OCC2CCCN(C(=O)Cc3ccccc3F)C2)cc1 (centres undefined)	875 s
O=C(NC1CCCCC1)N1CCCC(Cn2cnc3cccnc32)C1 (centres undefined)	663 s
CN1C(=O)c2cc(C(=O)NCCc3ccccc3Cl)nn2CC1(C)C(=O)NCc1ccccc1 (centres undefined)	816 s
CCn1c(CCC(=O)NCc2ccc(F)cc2F)nc2c(C)cccc2c1=O	872 s
Cc1ccc(C)c(NC(=O)c2csc(-c3cn(C)c4ncccc34)n2)c1	1110 s
COc1cccc(CNc2c(-c3nc(C(C)C)no3)cnc3nc(C)ccc23)c1	790 s

Compound	RP-LC retention time
CN(CCNC(=O)c1ncoc1-c1ccco1)Cc1ccccc1	630 s
COc1ccc(-c2noc(-c3ccc(N4CCN(c5cccc(OC)c5)CC4)nc3)n2)cc1	1340 s
CCn1c(=O)c(C)nc2cc(-c3noc(-c4ccc(C)cc4)n3)ccc21	1200 s
Cn1nc(C(=O)N2CCC(Oc3ccc(-c4noc(C5CC5)n4)cc3)C2)c2ccccc21 (centres undefined)	1050 s
COc1ccc(-c2noc(C3CCCN3C(=O)c3sccc3C)n2)cc1 (centres undefined)	984 s
Cc1nc(-c2ccc(-c3noc(C(C)Oc4ccccc4)n3)cc2)cs1 (centres undefined)	1210 s
O=C(NCc1ccc(F)c(Cl)c1)c1nnn(-c2ccccc2)c1-c1ccccn1	872 s
CC(C)CCNC(=O)C1Cn2cccc2C(=O)N1CC(C)C (centres undefined)	799 s
CC(C(=O)NCCSc1nncn1C)n1nnc2ccccc2c1=O (centres undefined)	578 s
COc1ccc(S(=O)(=O)NCc2ccc3c(c2)CCN3C(=O)c2ccc(F)cc2)cc1	927 s
N#Cc1ccc(NC(=O)C2CCN(S(=O)(=O)c3cc(C(=O)N4CCCC4)cs3)CC2)cc1	792 s
Cc1nn(CC(=O)N2CCCC2)c(=O)c2c(-n3cccc3)n(-c3cccc(F)c3)nc12	876 s
Cc1cc2nn(CC(=O)NCc3ccccc3)c(=O)n2c(Nc2ccc(C)c(C)c2)n1	1060 s
CN(CCc1noc(-c2ccc(C(=O)N(C)Cc3ccco3)cc2)n1)C(=O)c1ccccc1	817 s
CCC1CN2C=Nc3oc(C)c(C(=O)Nc4ccc(C)c(F)c4)c3C2=N1 (centres undefined)	689 s
Cn1cnc2cc(CNC(=O)c3ccc(F)cc3)ccc21	577 s
Cc1cccc(NC(=O)CN2C(=O)C3CCCCN3c3ccc(C(=O)N4CCCC4)cc32)c1 (centres undefined)	853 s
CCOC(=O)c1cc2ccsc2n1CC(=O)NCCN1CCN(C)CC1	600 s
CCN(CC)CCNC(=O)C1COc2ccc(OC)cc2C1 (centres undefined)	602 s
COc1ccc(S(=O)(=O)NCc2cccnc2-c2ccc(C)cc2)cc1Cl	743 s
Cc1cccc(Cn2c(=O)n(CCNC(=O)C3CCCO3)c3ncccc32)c1 (centres undefined)	715 s
COc1ccc2c(c1)CCc1sc(NC(=O)c3cccc(Br)c3)nc1-2	1240 s
